Where a name gives a salt, the structure may show the parent alone.
Columns and labels:
5-HT1A receptor [1] = molecular target: T1, 5-HT1A receptor (Homo sapiens, UniProt P08908); experiment: cAMP level (HTRF) in HEK293 cells that overexpress the 5-HT1AR gene; assay type: cell-based
T1 construct: EGFP; expressed in transfected cells
T1 sequence (P08908 1-422): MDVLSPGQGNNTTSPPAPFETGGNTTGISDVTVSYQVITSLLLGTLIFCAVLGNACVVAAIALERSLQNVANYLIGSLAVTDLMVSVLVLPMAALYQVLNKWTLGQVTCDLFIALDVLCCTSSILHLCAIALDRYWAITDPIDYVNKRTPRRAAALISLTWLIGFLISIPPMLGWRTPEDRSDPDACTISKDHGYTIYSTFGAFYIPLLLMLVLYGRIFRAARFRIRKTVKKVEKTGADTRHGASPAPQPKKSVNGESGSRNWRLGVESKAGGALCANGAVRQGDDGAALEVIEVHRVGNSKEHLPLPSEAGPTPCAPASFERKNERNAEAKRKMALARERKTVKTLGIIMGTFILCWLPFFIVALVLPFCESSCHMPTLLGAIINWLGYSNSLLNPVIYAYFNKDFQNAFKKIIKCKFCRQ
Experimental: (§1) The examination of the functional activity read out as cAMP level inhibition and ERK1/2 and Akt1 phosphorylation was performed according to the instructions of the One-plate Cisbio Bioassays cAMP dynamic 2, phospho-ERK (Thr202/Tyr204) and Akt1 phospho- S473 Cellular Assay Kits respectively, using a HEK293 human fibroblast cell line that overexpresses 5-HT1A receptors. […] The cAMP levels in PC-3 cells were determined using 600,000 cells/mL. Receptor activation with the appropriate ligands was carried out for 30 min, and then the cells were lysed. The results were analyzed with GraphPad Prism v 6.0 (GraphPad Software, San Diego, CA, USA) using its in-built functions. Ligand activity was determined using a 4-parameter equation of the dose-response function. […] M.
(§2) All compounds were tested with both agonists and antagonists. To test the response of cAMP to an agonist the cells were activated with forskolin (1 µM) followed by agonist addition. […] Data are an average of minimum three independent experiments in duplicate. The control of specific activity was measured under the same conditions on cells lacking the 5-HT1A receptor. The results were expressed as % of the reference agonist activity. In the antagonist mode 100% of the reference agonist activity (EC80) corresponded to 0% antagonist activity.

5-HT1A receptor [2] = molecular target: T1, 5-HT1A receptor; experiment: ERK1/2 phosphorylation (HTRF) in HEK293 cells that overexpress the 5-HT1AR gene; assay type: cell-based; conditions: for EC50: agonist mode, HEK293-5-HT1A cells, read-out: ERK1/2 EC50
Experimental: as §1, §2

Balb/c 3T3 cells = experiment: MTT cell survival assay, Balb/c 3T3 cells (normal reference); assay type: cell-based, murine; conditions: Mus musculus, BALB/c3T3, 72 h
Experimental: (§3) The effects of the test compounds on the survival of PC-3, SH-SY5Y, Balb/c 3T3 and HEK293 cells was measured with the aid of the 3-(4,5-dimethylthiazol-2-yl)-2,5-diphenyltetrazolium bromide (MTT) assay. The cells were cultured in 96-well plates (100 μL/well) for 72 h. The optimized initial densities were the following: for PC-3—60,000 cells/mL, SH-SY5Y and Balb/c 3T3—50,000 cells/mL.
(§4) After 20 h preincubation and evaluation of the uniformity of cell growth, the medium was aspirated, and the respective solutions of the substances were added to the culture medium. Control cells were only treated the solvent used for the compounds and medium alone.
(§5) MTT (3-(4,5-dimethylthiazol-2-yl)-2,5-diphenyltetrazolium bromide) is reduced by intracellular dehydrogenase, which is present only in live cells (mitochondria), to purple, water-insoluble formazan. After it is dissolved, formazan absorbance of the resulting solution is directly proportional to the number of living cells in culture.
After appropriate incubation, the culture medium was removed. Next, 50 μL of MTT solution (0.5 mg/mL) diluted in PBS to 0.5 mg/mL was added to each well. The plates were incubated for 3 h at 37 °C. Then, the precipitated formazan was dissolved by the addition of 200 μL isopropanol. After a 24-hour incubation at 4 °C in the dark, the absorbance of the dissolved formazan was measured at 570 nm (the maximum absorption of formazan) and at 690 nm (reference wavelength) using a Power Wave XS microplate spectrophotometer (Bio-Tek, Winooski, VT, USA). The plates were sealed to reduce evaporation before incubation. The test was performed in three to five independent experiments with four times the measured concentration tested. The cell survival percentage was determined as % of controls, which were cells treated with the test compound solvent at the highest concentration.

[3] = molecular target: T2, serotonin transporter (SERT) (Rattus norvegicus, UniProt P31652); experiment: In vitro binding affinity for serotonin transporter ([3H]-citalopram displacement); conditions: rat cerebral cortex, read-out: SERT Ki ± SEM
T2 construct: Rat cerebral cortex was homogenized in 30 volumes of ice-cold 50 mM Tris-HCl; from tissue; host or cells: rat cerebral cortex (membrane pellet)
Experimental: The experiments were performed according to the method described by Owens et al. Rat cerebral cortex was homogenized in 30 volumes of ice-cold 50 mM Tris-HCl containing 150 mM NaCl and 5 mM KCl, pH 7.7 at 25 °C and centrifuged at 20,000 × g for 20 min. The supernatant was decanted, and the pellet was resuspended in 30 volumes of buffer and centrifuged three times. The final pellet was suspended in Tris-HCl buffer at a proportion of approximately 5 mg wet weight/mL. An increasing concentration of the analyzed compounds (30 μL) was added to the incubation mixture containing 240 μL of tissue suspension and 30 μL of 1 nM [^3H]-citalopram (used for labeling 5-HT-transporter). Non-specific binding was determined in the presence 30 μL of 1 μM imipramine (displacer). Duplicate samples were incubated at room temperature for 1 h. The incubation was terminated by rapid filtration over fiberglass filters FilterMate B (Perkin Elmer, Waltham, MA, USA) using a 96-well FilterMate harvester (PerkinElmer, Waltham, MA, USA). The radioactivity of the filters was measured with a MicroBeta TriLux 1450 scintillation counter. Ki values were calculated from the Cheng–Prusoff equation [31]: (1) Ki=IC50/1+Lo/KD where Lo is the labeled ligand concentration, and KD is the dissociation constant of the labeled ligand.

SH-SY5Y cells = experiment: MTT cell survival assay, SH-SY5Y cells; assay type: cell-based, human; conditions: for IC50: Homo sapiens, SH-SY5Y cells, MTT, 72 h; for Selectivity Index: IC50 Balb/c 3T3 / IC50 SH-SY5Y
Experimental: as §3, §4, §5
(§6) After appropriate incubation, the culture medium was removed. Next, 50 μL of MTT solution (0.5 mg/mL) diluted in PBS to 0.5 mg/mL was added to each well. […] Then, the precipitated formazan was dissolved by the addition of 200 μL isopropanol. […] The plates were sealed to reduce evaporation before incubation. The test was performed in three to five independent experiments with four times the measured concentration tested. The cell survival percentage was determined as % of controls, which were cells treated with the test compound solvent at the highest concentration.

PC-3 cells = experiment: MTT cell survival assay, PC-3 cells; assay type: cell-based, human; conditions: for IC50: Homo sapiens, PC-3 cells, MTT, 72 h; for Selectivity Index: IC50 Balb/c 3T3 / IC50 PC-3
Experimental: as §3, §4, §5, §6

[4] = set-up: method as in PMID 23574807; conditions: Porsolt forced swim test; cited from earlier work
[5] = system: PC-3 prostate cancer cells; experiment: Apoptosis determination (FITC Annexin V, flow cytometry) in PC-3 cells; assay type: cell-based, human; conditions: 72 h, sum of early and late apoptosis
Experimental: Apoptosis was measured using the FITC Annexin V Apoptosis Detection Kit I (BD Biosciences, San Jose, CA, USA). Cells, after incubations 72 h with tested agents, were centrifuged, rinsed twice with cold phosphate-buffered saline (PBS) and suspended in binding buffer at 1 × 10^6 cells/mL. Then, 100-μL volumes of the cell suspensions were labeled according to the manufacturer’s instructions. Flow cytometry analysis was performed within 1 h after labeling. Flow cytometry analyses was run on a FACSCanto II flow cytometer (BD Biosciences, San Jose CA, USA) and analyzed using BD FACSDiva software.

T2 sequence (P31652 whole entry): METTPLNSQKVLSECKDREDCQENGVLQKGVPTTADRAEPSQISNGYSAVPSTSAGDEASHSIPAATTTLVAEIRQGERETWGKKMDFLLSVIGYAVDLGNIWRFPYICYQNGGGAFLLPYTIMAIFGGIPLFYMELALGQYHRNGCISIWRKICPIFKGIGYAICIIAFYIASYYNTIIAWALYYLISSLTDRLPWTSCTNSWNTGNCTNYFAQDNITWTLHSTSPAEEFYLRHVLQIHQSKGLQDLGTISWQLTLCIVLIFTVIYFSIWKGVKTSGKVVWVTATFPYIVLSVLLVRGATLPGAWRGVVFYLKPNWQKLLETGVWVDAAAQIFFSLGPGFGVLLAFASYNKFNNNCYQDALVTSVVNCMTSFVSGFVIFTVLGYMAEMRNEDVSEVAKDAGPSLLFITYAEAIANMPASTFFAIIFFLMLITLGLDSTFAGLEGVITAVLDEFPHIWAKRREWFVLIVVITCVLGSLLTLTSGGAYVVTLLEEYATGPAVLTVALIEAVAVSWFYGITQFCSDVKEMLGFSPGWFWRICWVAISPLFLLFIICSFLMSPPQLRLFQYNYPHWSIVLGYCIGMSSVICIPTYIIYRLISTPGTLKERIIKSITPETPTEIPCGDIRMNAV

Structure (SMILES) | IC50 (5-HT1A receptor [1]) [µM] | IC50 (5-HT1A receptor [2]) [µM] | IC50 (Balb/c 3T3 cells) [µM] | Ki [3] [µM] | IC50 (SH-SY5Y cells) [µM] | Selectivity Index (SH-SY5Y cells) | IC50 (PC-3 cells) [µM] | Selectivity Index (PC-3 cells) | melting point [°C] | EC50 (5-HT1A receptor [2]) [µM] | antidepressant activity [4] | apoptosis ([5]; 25 μM) [%] | apoptosis ([5]; 50 μM) [%] | apoptosis ([5]; 75 μM) [%] | Selectivity Index (PC-3 cells; listed as KW117 (6))
Cl.O=[N+]([O-])c1ccc2nc(N3CCN(Cc4ccc(F)cc4)CC3)ccc2c1 [AB5A, 2-[4-(4-fluorobenzyl)piperazin-1-yl]-6-nitroquinoline hydrochloride] | 96.9 | 17.9 | 38.9 ± 4.08 | 0.0074 ± 0.0024 | 18.1 ± 1.68 | 2.15 | 27.2 ± 3.2 | 1.43 |  |  |  |  |  |  | 
Cl.O=[N+]([O-])c1ccc2nc(N3CCN(CC4CCCCC4)CC3)ccc2c1 [AB21, 2-[4-(cyclohexylmethyl)piperazin-1-yl]-6-nitroquinoline hydrochloride] | 0.002 | 0.78 | 20.5 ± 3.5 | 0.0149 ± 0.0016 | 21.6 ± 1.07 | 0.95 | 18 ± 1.88 | 1.14 | 107 to 108 |  |  |  |  |  | 
Cl.O=[N+]([O-])c1ccc2nc(N3CCN(CC4CCC4)CC3)ccc2c1 [AB22, 2-[4-(cyclobutylmethyl)piperazin-1-yl]-6-nitroquinoline hydrochloride] | 76.1 |  | 35.5 ± 8.71 | 0.0076 ± 0.0008 | 35 ± 8.96 | 1.01 | 23.5 ± 2.21 | 1.51 | 99 to 101 | 0.0138 |  |  |  |  | 
CCCCCCCCCN1CCN(c2ccc3cc([N+](=O)[O-])ccc3n2)CC1 [AZ05, 6-nitro-2-(4-nonylpiperazin-1-yl)quinolone hydrochloride] | 9.7 | 1.28 | 24.4 ± 1.49 |  | 17.3 ± 1.85 | 1.41 | 9.85 ± 0.79 | 2.48 |  |  | moderate antidepressant activity |  |  |  | 
CCCCCCCCCCCN1CCN(c2ccc3cc([N+](=O)[O-])ccc3n2)CC1.Cl [AZ07, 6-nitro-2-(4-undecylpiperazin-1-yl)quinoline hydrochloride] | 0.73 | 0.9 | 11.5 ± 0.62 |  | 9.15 ± 0.74 | 1.26 | 5.74 ± 1.02 | 2.00 |  |  | moderate antidepressant activity | 20 | 35 | 44 | 
CNCCC(Oc1ccc(C(F)(F)F)cc1)c1ccccc1 (stereo not drawn) [Fluoxetine, fluoxetine, reference compound] |  |  |  |  |  |  |  |  |  |  |  | 21 | 60 | 80 | 
COCCCC/C(=N\OCCN)c1ccc(C(F)(F)F)cc1 [Fluvoxamine, fluvoxamine, reference compound] |  |  | 52 ± 5.4 |  | 89.4 ± 3.64 |  | 47.8 ± 2.85 |  |  |  |  |  |  |  | 
CCCCCCCCN1CCN(c2ccc3cc([N+](=O)[O-])ccc3n2)CC1.Cl [KW117, 6-nitro-2-(4-octylpiperazin-1-yl)quinoline hydrochloride] |  | 7.18 | 38.1 ± 6.54 |  | 25.4 ± 2.66 | 1.50 | 14.4 ± 1.7 |  |  |  | moderate antidepressant activity |  |  |  | 2.65
COCCCC/C(=N\OCCNC(C)=O)c1ccc(C(F)(F)F)cc1 [N-Ac-Fluvoxamine, reference compound] | 20.1 | 11.2 | 136 ± 3.95 |  | 112 ± 3.85 | 1.21 | 92.2 ± 9.65 |  |  |  |  |  |  |  | 
CC(=O)N1CCC(c2ccc(F)cc2)C(COc2ccc3c(c2)OCO3)C1 (stereo not drawn) [N-Ac-Paroxetine, reference compound] | 1 |  | 66.2 ± 2.35 |  | 65.6 ± 1.01 | 1.01 | 45.3 ± 1.44 | 1.46 |  | 4.23 |  |  |  |  | 
Fc1ccc([C@@H]2CCNC[C@H]2COc2ccc3c(c2)OCO3)cc1 [Paroxetine, paroxetine, reference compound] | 0.0511 |  | 14.9 ± 0.24 |  | 18.1 ± 0.48 | 0.82 | 12.1 ± 0.37 | 1.23 |  | 0.15 |  |  |  |  | 
COc1ccccc1N1CCN(CCN(C(=O)C2CCCCC2)c2ccccn2)CC1 [WAY100635, N-[2-[4-(2-Methoxyphenyl)-1-piperazinyl]ethyl]-N-2-pyridinylcyclohexanecarboxamide maleate, reference compound] |  |  | 88 ± 13.5 |  | 74.3 ± 11.8 |  | 43.3 ± 4.05 |  |  |  |  |  |  |  | 

Source: article PMC6214143, “Oncotoxic Properties of Serotonin Transporter Inhibitors and 5-HT1A Receptor Ligands” (International Journal of Molecular Sciences, 2018)
